Results reported in patent US20260207755A1, “TARGETED PROTEIN DEGRADERS OF INDOLEAMINE 2,3-DIOXYGENASE 1 (IDO1)” (Northwestern University, priority 2022, published 2026).

Tests used:
cereblon (CRBN) protein = target: T1, cereblon (CRBN) protein (Homo sapiens, UniProt Q96SW2); assay: BLI binary binding of IDO1-PROTAC to immobilized CRBN; settings: CRBN amine coupled to AR2G sensors
T1 construct: purchased Sino Biological
Experimental: (§1) FIGS. 13A-13C show mechanistic understanding of IDO1-PROTAC-induced IDO1 degradation. […] Data sets fitted globally with a 1:1 kinetic model. FIG. 13B is BLI sensorgrams showing association and dissociation of compound NU227164 to CRBN protein pre-immobilized on AR2G sensors. Binding experiments and data fitting were performed as described above. FIG. 13C is BLI sensorgrams for the IDO1-NU227164-CRBN ternary complex. IDO1 protein was loaded onto NiNTA biosensors. IDO1 was pre-immobilized on NI NTA sensors, and binding of compound NU227164 preincubated with CRBN was monitored in the association step; next, the sensors were moved into reaction buffer in order monitor dissociation. As indicated in the legend, each trace corresponds to a different concentration of NU227164. Data sets fitted globally with a 1:1 kinetic model. No binding was detected between CRBN and IDO1 in the absence of NU227164 (trace “CRBN only”).
(§2) FIGS. 14A-14C illustrate mechanistic understanding of DO1-PROTAC-induced IDO1 degradation. […] The equilibrium dissociation constant (Kd) was obtained by fitting the steady state data (Req as a function of compound concentration) with a 1:1 binding model. FIG. 14B is BLI sensorgrams showing association and dissociation of compound NU227168 to CRBN protein pre-immobilized on AR2G sensors. Binding experiments and data fitting were performed as described above. FIG. 14C is BLI sensorgrams for the IDO1-NU227168-CRBN ternary complex. IDO1 protein was loaded onto NiNTA biosensors. IDO1 was pre-immobilized on NI NTA sensors, and binding of compound NU227168 preincubated with CRBN was monitored in the association step; next, the sensors were moved into reaction buffer in order monitor dissociation. As indicated in the legend, each trace corresponds to a different concentration of NU227168. Data sets fitted globally with a 1:1 kinetic model. No binding was detected between CRBN and IDO1 in the absence of NU227168 (trace “CRBN only”).
(§3) FIGS. 15A-15C show mechanistic understanding of IDO1-PROTAC-induced IDO1 degradation. […] The equilibrium dissociation constant (Kd) was obtained by fitting the steady state data (Req as a function of compound concentration) with a 1:1 binding model. FIG. 15B is BLI sensorgrams showing association and dissociation of compound NU227191 to CRBN protein pre-immobilized on AR2G sensors. Binding experiments and data fitting were performed as described above. FIG. 15C is BLI sensorgrams for the IDO1-NU227191-CRBN ternary complex. IDO1 protein was loaded onto NiNTA biosensors. IDO1 was pre-immobilized on NI NTA sensors, and binding of compound NU227191 preincubated with CRBN was monitored in the association step; next, the sensors were moved into reaction buffer in order monitor dissociation. As indicated in the legend, each trace corresponds to a different concentration of NU227191. Data sets fitted globally with a 1:1 kinetic model. No binding was detected between CRBN and IDO1 in the absence of NU227191 (trace “CRBN only”).
(§4) FIGS. 16A-16C show mechanistic understanding of IDO1-PROTAC-induced IDO1 degradation. […] The equilibrium dissociation constant (Kd) was obtained by fitting the steady state data (Req as a function of compound concentration) with a 1:1 binding model. FIG. 16B is BLI sensorgrams showing association and dissociation of compound NU227199 to CRBN protein pre-immobilized on AR2G sensors. Binding experiments and data fitting were performed as described above. FIG. 16C is BLI sensorgrams for the IDO1-NU227199-CRBN ternary complex. IDO1 protein was loaded onto NiNTA biosensors. IDO1 was pre-immobilized on NI NTA sensors, and binding of compound NU227199 preincubated with CRBN was monitored in the association step; next, the sensors were moved into reaction buffer in order monitor dissociation. As indicated in the legend, each trace corresponds to a different concentration of NU227199. Data sets fitted globally with a 1:1 kinetic model. […]

[1] = target: T2, IDO1-PROTAC-CRBN ternary complex (Homo sapiens, UniProt P14902+Q96SW2); assay: BLI IDO1-PROTAC-CRBN ternary complex; format: binding; settings: IDO1 on NiNTA sensors, PROTAC pre-incubated with 25 molar excess of CRBN, 1:1 kinetic model
T2 construct: purchased Active Motif (IDO1); Sino Biological (CRBN) 81031 (IDO1); none given for CRBN
T2 sequence (P14902 whole entry): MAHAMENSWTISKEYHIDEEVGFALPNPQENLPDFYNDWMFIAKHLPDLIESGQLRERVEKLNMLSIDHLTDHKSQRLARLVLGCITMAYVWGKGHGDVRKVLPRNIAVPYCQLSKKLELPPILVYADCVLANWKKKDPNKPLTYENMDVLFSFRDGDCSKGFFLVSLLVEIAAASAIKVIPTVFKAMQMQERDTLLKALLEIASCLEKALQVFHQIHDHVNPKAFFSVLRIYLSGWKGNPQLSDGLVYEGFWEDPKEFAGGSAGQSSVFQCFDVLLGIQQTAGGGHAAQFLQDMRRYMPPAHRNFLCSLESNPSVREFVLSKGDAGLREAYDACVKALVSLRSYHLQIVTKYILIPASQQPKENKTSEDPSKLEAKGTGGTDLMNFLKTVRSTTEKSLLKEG
T2 sequence (Q96SW2 whole entry): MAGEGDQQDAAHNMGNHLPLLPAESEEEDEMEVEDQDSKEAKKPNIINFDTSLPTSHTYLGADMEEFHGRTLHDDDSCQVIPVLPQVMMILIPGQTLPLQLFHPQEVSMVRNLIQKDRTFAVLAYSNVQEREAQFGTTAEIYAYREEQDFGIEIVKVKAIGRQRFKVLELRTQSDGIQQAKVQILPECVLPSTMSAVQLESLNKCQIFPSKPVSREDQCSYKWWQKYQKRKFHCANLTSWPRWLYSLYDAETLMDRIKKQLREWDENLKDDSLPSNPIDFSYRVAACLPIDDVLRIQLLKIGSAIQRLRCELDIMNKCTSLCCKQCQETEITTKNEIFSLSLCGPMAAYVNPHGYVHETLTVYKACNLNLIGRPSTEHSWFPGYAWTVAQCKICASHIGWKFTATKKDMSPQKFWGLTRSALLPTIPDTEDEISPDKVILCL
Experimental: as §1, §2, §3, §4

[2] = target: T3, 6×His tagged recombinant IDO1 protein (Homo sapiens, UniProt P14902); assay: BLI binary binding of IDO1-PROTAC to immobilized IDO1; settings: IDO1 on Ni-NTA sensors, PBS+0.5% DMSO pH 7.4, 30° C
T3 construct: purchased Active Motif 81031
T3 sequence (P14902 whole entry): as the sequence (P14902 whole entry) above
Experimental: as §1, §2, §3, §4

kynurenine in U87 cells = assay: Kynurenine assay (Ehrlich's reagent) in U87 cells; format: cell-based; settings: indicated doses of compound
Experimental: (§5) FIGS. 20A-20E show biological activity of compounds NU227326 and NU227327.
Kynurenine levels in cell culture supernatants were measured using Erhlich's reagent. Briefly, cell culture supernatants were incubated with a 10% final concentration of trichloroacetic acid in Eppendorf tubes for 20 min at 60° C. to release kynurenine from cells and to precipitate proteins. After 20 minutes, samples were centrifuged for 20 min at 2500×g and supernatants were mixed with 20 mg/mL 4-dimethylamino benzaldehyde in acetic acid (Sigma Aldrich) at a 1:1 ratio and absorbance was measured at 480 nm using a plate reader.

IDO1 in U87 cells = target: T4, IDO1 in U87 cells (Homo sapiens, UniProt P14902); assay: PROTAC-induced IDO1 degradation in U87 cells by Western blot; format: cell-based; settings: 24 h
T4 construct: endogenous in cells; host or cells: U87 cells, IDO1 induced with IFNγ
T4 sequence (P14902 whole entry): as above
Experimental: as §5
(§6) FIGS. 22A-22D show determination of IDO1 degrading potency of NU227326.
(§7) Protein samples were prepared by lysing the cells in RIPA buffer (Sigma-Aldrich, Cat #R0278) supplemented with protease and phosphatase inhibitors on ice for 30 min. Cell lysates were clarified by centrifugation at 16,000×g for 15 min at 4° C. Equal amounts of proteins as quantified by bicinchoninic acid assay (Pierce) were separated on an SDS-polyacrylamide gel electrophoresis and proteins were electrophoretically transferred onto a polyvinylidene fluoride (PVDF) membrane using a Trans-Blot Turbo Transfer System (Bio-Rad, Hercules, CA, USA). The blotted membranes were blocked for 1 h at room temperature in blocking buffer containing 5% (w/v) nonfat dry milk in Tris-buffered saline and 0.1% Tween 20 (TBS-T) followed by incubating the membranes overnight at 4° C. with primary antibodies against a target protein diluted at a standardized concentration in blocking buffer. […] The protein bands were detected using an enhanced chemiluminescence reagent (SuperSignal West Femto Maximum Sensitivity substrate) and blots were visualized with Bio-Rad ImageLab software on a Bio-Rad […] MP imaging system. […]

IDO1 in GBM43 cells = target: T5, IDO1 in GBM43 cells (Homo sapiens, UniProt P14902); assay: PROTAC-induced IDO1 degradation in GBM43 cells by Western blot; format: cell-based; settings: 24 h
T5 construct: endogenous in cells; host or cells: GBM43 cells
T5 sequence (P14902 whole entry): as above
Experimental: as §5, §6, §7

[3] = levels of IDO1 quantified from Western blot

T1 sequence (Q96SW2 whole entry): as the sequence (Q96SW2 whole entry) above

C[C@@H](C(=O)Nc1ccc(Cl)c(OC2CCN(C(=O)CN3CCC(CN4CCN(c5ccc6c(c5)C(=O)N(C5CCC(=O)NC5=O)C6=O)CC4)CC3)CC2)c1)[C@H]1CC[C@@H](c2ccnc3ccc(F)cc32)CC1 (stereo partly drawn) [NU227164, (2R)-N-(4-chloro-3-((1-(2-(4-((4-(2-(2,6-dioxopiperidin-3-yl)-1,3-dioxoisoindolin-5-yl)piperazin-1-yl)methyl)piperidin-1-yl)acetyl)piperidin-4-yl)oxy)phenyl)-2-((1s,4,S)-4-(6-fluoroquinolin-4-yl)cyclohexyl)propanamide]
Kd (cereblon (CRBN) protein): 310 nM
Kd [1]: 128 nM
Kd [2]: 430 nM

C[C@@H](C(=O)Nc1ccc(Cl)c(OC2CCN(C(=O)CN3CCC(N4CCN(c5ccc6c(c5)C(=O)N(C5CCC(=O)NC5=O)C6=O)CC4)CC3)CC2)c1)[C@H]1CC[C@@H](c2ccnc3ccc(F)cc32)CC1 (stereo partly drawn) [NU227168, (2R)-N-(4-chloro-3-((1-(2-(4-(4-(2-(2,6-dioxopiperidin-3-yl)-1,3-dioxoisoindolin-5-yl)piperazin-1-yl)piperidin-1-yl)acetyl)piperidin-4-yl)oxy)phenyl)-2-((1s,4S)-4-(6-fluoroquinolin-4-yl)cyclohexyl)propanamide]
Kd (cereblon (CRBN) protein): 190 nM
Kd [1]: 87 nM
Kd [2]: 340 nM

C[C@@H](C(=O)Nc1ccc(Cl)c(OC2CCN(C(=O)C3CCN(C[C@H]4CC[C@H](Nc5ccc6c(c5)C(=O)N(C5CCC(=O)NC5=O)C6=O)CC4)CC3)CC2)c1)[C@H]1CC[C@@H](c2ccnc3ccc(F)cc32)CC1 (stereo partly drawn) [NU227199, (2R)-N-(4-chloro-3-((1-(1-(((1r,4r)-4-((2-(2,6-dioxopiperidin-3-yl)-1,3-dioxoisoindolin-5-yl)amino)cyclohexyl)methyl)piperidine-4-carbonyl)piperidin-4-yl)oxy)phenyl)-2-((1s,4S)-4-(6-fluoroquinolin-4-yl)cyclohexyl)propanamide]
Kd (cereblon (CRBN) protein): 1600 nM
Kd [1]: 689 nM
Kd [2]: 2100 nM

C[C@@H](C(=O)Nc1cccc(OC2CCN(C(=O)CN3CCC(N4CCN(c5ccc6c(c5)C(=O)N(C5CCC(=O)NC5=O)C6=O)CC4)CC3)CC2)c1)[C@H]1CC[C@@H](c2ccnc3ccc(F)cc32)CC1 (stereo partly drawn) [NU227326, (2R)-N-(3-((1-(2-(4-(4-(2-(2,6-dioxopiperidin-3-yl)-1,3-dioxoisoindolin-5-yl)piperazin-1-yl)piperidin-1l-yl)acetyl)piperidin-4-yl)oxy)phenyl)-2-((1s,4S)-4-(6-fluoroquinolin-4-yl)cyclohexyl)propanamide]
concentration of kynurenine (kynurenine in U87 cells): strong reduction of cellular kynurenine
Kd (cereblon (CRBN) protein): 380 nM
Kd [1]: 321 nM
Kd [2]: 140 nM
IDO1 degradation by Western blotting (IDO1 in U87 cells; indicated concentrations): dose-dependent IDO1 degradation
DC50 (IDO1 in U87 cells; [3]): 10.4 nM
IDO1 degradation by Western blotting (IDO1 in GBM43 cells; indicated concentrations): potent and dose-dependent degradation of IDO1
DC50 (IDO1 in GBM43 cells; [3]): 20.3 nM

C[C@@H](C(=O)Nc1cccc(OC2CCN(C(=O)CN3CCC(CN4CCN(c5ccc6c(c5)C(=O)N(C5CCC(=O)NC5=O)C6=O)CC4)CC3)CC2)c1)[C@H]1CC[C@@H](c2ccnc3ccc(F)cc32)CC1 (stereo partly drawn) [NU227327, (2R)-N-(3-((1-(2-(4-((4-(2-(2,6-dioxopiperidin-3-yl)-1,3-dioxoisoindolin-5-yl)piperazin-1-yl)methyl)piperidin-1-yl)acetyl)piperidin-4-yl)oxy)phenyl)-2-((1s,4S)-4-(6-fluoroquinolin-4-yl)cyclohexyl)propanamide]
concentration of kynurenine (kynurenine in U87 cells): strong reduction of cellular kynurenine
Kd (cereblon (CRBN) protein): 520 nM
Kd [1]: 997 nM
Kd [2]: 370 nM

(2R)-N-(4-((1-(1-(2-((2-(2,6-dioxopiperidin-3-yl)-1,3-dioxoisoindolin-5-yl)amino)ethoxy)ethyl)piperidine-4-carbonyl)piperidin-4-yl)oxy)phenyl)-2-((1s,4S)-4-(6-fluoroquinolin-4-yl)cyclohexyl)propanamide [NU227191]
Kd (cereblon (CRBN) protein): 5100 nM
IDO1-PROTAC-CRBN Ternary Kd [1]: could not obtain
Kd [2]: 12000 nM
